According to US12208088B2 (Genentech, Inc., priority 2018, dated 2025):

Biological target: HPK1 (Homo sapiens (Human), UniProt Q92918)
Experiment: HPK1 Lantha binding assay ("Lanth")
Settings: binding assays; Morrison Ki fit
Method: Example B2: HPK1 Lantha Binding Assay (“Lanth”)
Procedure: I. Compound Dilution:
The compounds to be tested were diluted by preparing 12.5 uL/well of 5 mM compound (100×) in columns 2 and 13 and 10 ul/well of DMSO in columns 3-12, 14-23, and wells A1-H1 and I24-P24 of the compound plate using a Bravo liquid handling platform. For the reference compound, the top concentration was 1 mM. To the plate was added 10 ul 2 mM staurosporine in wells J1-P1 and A24-H24. A 11 point 5-fold compound serial dilution was performed using the Bravo liquid handling platform. From the plate were transferred 2.5 ul of the solutions from column 2 and column 13 to the 10 ul of DMSO in columns 3 and 14 & so on. The compound plate was centrifuged at 2500 rpm for 1 min. From the compound plate was transferred 80 nl of the compounds into an assay plate using the Echo liquid handler system. One compound plate makes two assay plates. Each assay plate is sealed and stored in an N2 cabinet.
The following assay concentrations and times were used: 2 nM HPK1, 2 nM Eu-Anti-GST Ab, and 15 nM Tracer222, with 60 min incubation time.
III. HPK Lantha Binding Assay:
For the binding assay, 4 ul 2×HPK1 and Eu-anti-GST antibody were added to each well of the assay plate using a Multidrop reagent dispenser. The solutions were incubated in a 23 C incubator for 1 h. To each well of the assay plate was added 4 ul 2× Tracer-222 using a Multidrop reagent dispenser. The solutions were again incubated in a 23 C incubator for 1 h. The results of the assay were read using an Envision plate reader with the following parameters: TR_FRET, 340 ex/615 and 665em; 100 usec Delay; and 200 usec integration.
Compound Ki was analyzed using Morrison ki fit model in XL-fit • a. fit=(1−((((E+x)+(Ki*(1+(S/Kd))))−(((((E+x)+(Ki*(1+(S/Kd))))^2)−((4*E)*x))^0.5))/(2*E))) • res=(y−fit) • b. Parameters: • E=enzyme concentration • S=Tracer222 concentration, Kd=Tracer222 Kd • All measurements reported using the same units (uM)
Exemplary compounds were tested in the binding assays.

Chain of HPK1 (Q92918 1-346 limits assumed): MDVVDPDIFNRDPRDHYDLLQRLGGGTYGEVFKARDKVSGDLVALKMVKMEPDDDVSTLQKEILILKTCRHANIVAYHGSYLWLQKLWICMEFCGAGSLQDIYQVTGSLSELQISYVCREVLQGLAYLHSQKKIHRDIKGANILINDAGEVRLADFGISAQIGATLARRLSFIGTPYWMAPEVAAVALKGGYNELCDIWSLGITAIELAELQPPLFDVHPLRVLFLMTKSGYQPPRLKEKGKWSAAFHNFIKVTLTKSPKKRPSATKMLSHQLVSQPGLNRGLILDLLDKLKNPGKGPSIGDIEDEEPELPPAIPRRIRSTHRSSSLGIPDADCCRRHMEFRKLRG

SMILES	Ki [nM]
CN(C)C(=O)c1c(N)ccc(-c2cnc3c(c2Cl)[C@]2(CC[C@H](N4CCOCC4)C2)CN3)c1F (relative stereo) [Compound 120a, 6-Amino-3-((1R,3S)-4′-chloro-3-morpholino-1′,2′-dihydrospiro[cyclopentane-1,3′-pyrrolo[2,3-b]pyridin]-5′-yl)-2-fluoro-N,N-dimethylbenzamide]	479
CN(C)C(=O)c1c(N)ccc(-c2cnc3c(c2Cl)[C@]2(CC[C@H](N4CCCC4)C2)CN3)c1F (relative stereo) [Compound 121a, 6-Amino-3-((1R,3S)-4′-chloro-3-(pyrrolidin-1-yl)-1′,2′-dihydrospiro[cyclopentane-1,3′-pyrrolo[2,3-b]pyridin]-5′-yl)-2-fluoro-N,N-dimethylbenzamide]	381
CN(C)C(=O)c1c(N)ccc(-c2cnc3c(c2Cl)[C@]2(CC[C@H](N4CCOC4=O)C2)CN3)c1F (relative stereo) [Compound 124a, 6-Amino-3-((1R,3S)-4′-chloro-3-(2-oxooxazolidin-3-yl)-1′,2′-dihydrospiro[cyclopentane-1,3′-pyrrolo[2,3-b]pyridin]-5′-yl)-2-fluoro-N,N-dimethylbenzamide]	35
Cc1cnn([C@H]2CC[C@@]3(CNc4ncc(-c5ccc(N)c(C(=O)N(C)C)c5F)c(Cl)c43)C2)c1 (relative stereo) [Compound 125a, 6-Amino-3-((1R,3S)-4′-chloro-3-(4-methyl-1H-pyrazol-1-yl)-1′,2′-dihydrospiro[cyclopentane-1,3′-pyrrolo[2,3-b]pyridin]-5′-yl)-2-fluoro-N,N-dimethylbenzamide]	3.56
CN(C)C(=O)c1c(N)ccc(-c2cnc3c(c2Cl)[C@]2(CC[C@H](n4cccn4)C2)CN3)c1F (relative stereo) [Compound 126a, 6-Amino-3-((1R,3S)-4′-chloro-3-(1H-pyrazol-1-yl)-1′,2′-dihydrospiro[cyclopentane-1,3′-pyrrolo[2,3-b]pyridin]-5′-yl)-2-fluoro-N,N-dimethylbenzamide]	18.5
CN(C)C(=O)c1c(N)ccc(-c2cnc3c(c2Cl)[C@]2(CC[C@H](CN)C2)CN3)c1F (relative stereo) [Compound 127a, 6-Amino-3-((1R,3S)-3-(aminomethyl)-4′-chloro-1′,2′-dihydrospiro[cyclopentane-1,3′-pyrrolo[2,3-b]pyridin]-5′-yl)-2-fluoro-N,N-dimethylbenzamide]	165
CC[C@H]1C[C@@]12CNc1ncc(-c3ccc(N)c(C(=O)N(C)C)c3F)c(Cl)c12 (relative stereo) [Compound 150a, 6-Amino-3-((1R,2S)-4′-chloro-2-ethyl-1′,2′-dihydrospiro[cyclopropane-1,3′-pyrrolo[2,3-b]pyridin]-5′-yl)-2-fluoro-N,N-dimethylbenzamide]	3.3
CN(C)C(=O)c1c(N)ccc(-c2cnc3c(c2Cl)[C@]2(CC[C@@](C)(C#N)C2)CN3)c1F (relative stereo) [Compound 151a, 6-Amino-3-((1R,3R)-4′-chloro-3-cyano-3-methyl-1′,2′-dihydrospiro[cyclopentane-1,3′-pyrrolo[2,3-b]pyridin]-5′-yl)-2-fluoro-N,N-dimethylbenzamide]	42
CC[C@]1(C#N)CC[C@@]2(CNc3ncc(-c4ccc(N)c(C(=O)N(C)C)c4F)c(Cl)c32)C1 (relative stereo) [Compound 152a, 6-Amino-3-((1R,3S)-4′-chloro-3-cyano-3-ethyl-1′,2′-dihydrospiro[cyclopentane-1,3′-pyrrolo[2,3-b]pyridin]-5′-yl)-2-fluoro-N,N-dimethylbenzamide]	4.35
Cc1noc([C@@]2(C)CC[C@@]3(CNc4ncc(-c5ccc(N)c(C(=O)N(C)C)c5F)c(Cl)c43)C2)n1 (relative stereo) [Compound 156a, 6-Amino-3-((1R,3S)-4′-chloro-3-methyl-3-(3-methyl-1,2,4-oxadiazol-5-yl)-1′,2′-dihydrospiro[cyclopentane-1,3′-pyrrolo[2,3-b]pyridin]-5′-yl)-2-fluoro-N,N-dimethylbenzamide]	2.63
Cc1nc(N)n([C@H]2CC[C@@]3(CNc4ncc(-c5ccc(N)c(C(=O)N(C)C)c5F)c(Cl)c43)C2)n1 (relative stereo) [Compound 158a, 6-Amino-3-((1R,3S)-3-(5-amino-3-methyl-1H-1,2,4-triazol-1-yl)-4′-chloro-1′,2′-dihydrospiro[cyclopentane-1,3′-pyrrolo[2,3-b]pyridin]-5′-yl)-2-fluoro-N,N-dimethylbenzamide]	132

The next lines start with the values.

Ki [nM]	SMILES
2.08	CN(C)C(=O)c1c(N)ccc(-c2cnc3c(c2Cl)[C@]2(CC[C@](C)(C(N)=O)C2)CN3)c1F (relative stereo) [Compound 132a, (1R,3S)-5′-(4-Amino-3-(dimethylcarbamoyl)-2-fluorophenyl)-4′-chloro-3-methyl-1′,2′-dihydrospiro[cyclopentane-1,3′-pyrrolo[2,3-b]pyridine]-3-carboxamide]
34	CN(C)C(=O)c1c(N)ccc(-c2cnc3c(c2Cl)[C@]2(CC[C@H](n4ccc(N)n4)C2)CN3)c1F (relative stereo) [Compound 133a, 6-Amino-3-((1R,3S)-3-(3-amino-1H-pyrazol-1-yl)-4′-chloro-1′,2′-dihydrospiro[cyclopentane-1,3′-pyrrolo[2,3-b]pyridin]-5′-yl)-2-fluoro-N,N-dimethylbenzamide]
16.1	CN(C)C(=O)c1c(N)ccc(-c2cnc3c(c2Cl)[C@]2(CC[C@H](n4nccc4N)C2)CN3)c1F (relative stereo) [Compound 134a, 6-Amino-3-((1R,3S)-3-(5-amino-1H-pyrazol-1-yl)-4′-chloro-1′,2′-dihydrospiro[cyclopentane-1,3′-pyrrolo[2,3-b]pyridin]-5′-yl)-2-fluoro-N,N-dimethylbenzamide]
7.16	CN(C)C(=O)c1c(N)ccc(-c2cnc3c(c2Cl)[C@]2(CC[C@H](CC(N)=O)C2)CN3)c1F (relative stereo) [Compound 135a, 6-Amino-3-((1R,3S)-3-(2-amino-2-oxoethyl)-4′-chloro-1′,2′-dihydrospiro[cyclopentane-1,3′-pyrrolo[2,3-b]pyridin]-5′-yl)-2-fluoro-N,N-dimethylbenzamide]
2.51	CC[C@@H]1C[C@@]12CNc1ncc(-c3ccc(N)c(C(=O)N(C)C)c3F)c(Cl)c12 (relative stereo) [Compound 150c, 6-Amino-3-((1R,2R)-4′-chloro-2-ethyl-1′,2′-dihydrospiro[cyclopropane-1,3′-pyrrolo[2,3-b]pyridin]-5′-yl)-2-fluoro-N,N-dimethylbenzamide]
7.16	CC[C@]1(C(N)=O)CC[C@@]2(CNc3ncc(-c4ccc(N)c(C(=O)N(C)C)c4F)c(Cl)c32)C1 (relative stereo) [Compound 153a, (1R,3S)-5′-(4-Amino-3-(dimethylcarbamoyl)-2-fluorophenyl)-4′-chloro-3-ethyl-1′,2′-dihydrospiro[cyclopentane-1,3′-pyrrolo[2,3-b]pyridine]-3-carboxamide]
109	Cc1nc(N)nn1[C@H]1CC[C@@]2(CNc3ncc(-c4ccc(N)c(C(=O)N(C)C)c4F)c(Cl)c32)C1 (relative stereo) [Compound 157a, 6-Amino-3-((1R,3S)-3-(3-amino-5-methyl-1H-1,2,4-triazol-1-yl)-4′-chloro-1′,2′-dihydrospiro[cyclopentane-1,3′-pyrrolo[2,3-b]pyridin]-5′-yl)-2-fluoro-N,N-dimethylbenzamide]
